Experimental findings from PubChem BioAssay AID588462 (The Scripps Research Institute Molecular Screening Center, 2011) are described below.

Assay in all cases: PAD1-3 enzyme inhibition potency, late-stage follow-up, biochemical, colorimetric, BAEE substrate, recombinant PAD1-3 (AID 588462)
For test [1], the target named is Protein-arginine deiminase type-3 (Homo sapiens) (UniProt Q9ULW8). The conditions noted are these: recombinant PAD1-3, BAEE citrullination, colorimetric absorbance; PAD3.
Test [2] concerns the target Protein-arginine deiminase type-2 (Homo sapiens) (UniProt Q9Y2J8). The note with it: recombinant PAD1-3, BAEE citrullination, colorimetric absorbance; PAD2.
The target in test [3] is Protein-arginine deiminase type-1 (Homo sapiens) (UniProt Q9ULC6). The conditions noted are these: recombinant PAD1-3, BAEE citrullination, colorimetric absorbance; PAD1.

Active and inactive are the calls of the source. How the calls were made is not given here.

Protein-arginine deiminase type-3 (Homo sapiens), sequence (Q9ULW8 whole entry, looked up): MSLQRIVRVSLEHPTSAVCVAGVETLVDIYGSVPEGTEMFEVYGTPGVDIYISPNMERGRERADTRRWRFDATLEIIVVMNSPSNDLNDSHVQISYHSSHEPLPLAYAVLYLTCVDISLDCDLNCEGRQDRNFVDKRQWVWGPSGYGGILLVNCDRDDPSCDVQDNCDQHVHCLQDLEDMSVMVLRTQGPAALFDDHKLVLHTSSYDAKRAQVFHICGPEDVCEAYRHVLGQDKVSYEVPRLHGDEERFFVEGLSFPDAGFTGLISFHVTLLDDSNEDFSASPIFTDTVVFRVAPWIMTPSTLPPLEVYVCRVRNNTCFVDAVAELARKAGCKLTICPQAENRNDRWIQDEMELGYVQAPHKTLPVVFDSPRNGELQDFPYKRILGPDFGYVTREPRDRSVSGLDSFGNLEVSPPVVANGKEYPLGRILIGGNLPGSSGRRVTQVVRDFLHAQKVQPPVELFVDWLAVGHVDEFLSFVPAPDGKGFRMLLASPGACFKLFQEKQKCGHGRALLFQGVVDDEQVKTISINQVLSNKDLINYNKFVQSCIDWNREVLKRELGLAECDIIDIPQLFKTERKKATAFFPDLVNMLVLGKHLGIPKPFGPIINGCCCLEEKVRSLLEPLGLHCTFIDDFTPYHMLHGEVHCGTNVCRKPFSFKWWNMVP
Protein-arginine deiminase type-1 (Homo sapiens), sequence (Q9ULC6 whole entry, looked up): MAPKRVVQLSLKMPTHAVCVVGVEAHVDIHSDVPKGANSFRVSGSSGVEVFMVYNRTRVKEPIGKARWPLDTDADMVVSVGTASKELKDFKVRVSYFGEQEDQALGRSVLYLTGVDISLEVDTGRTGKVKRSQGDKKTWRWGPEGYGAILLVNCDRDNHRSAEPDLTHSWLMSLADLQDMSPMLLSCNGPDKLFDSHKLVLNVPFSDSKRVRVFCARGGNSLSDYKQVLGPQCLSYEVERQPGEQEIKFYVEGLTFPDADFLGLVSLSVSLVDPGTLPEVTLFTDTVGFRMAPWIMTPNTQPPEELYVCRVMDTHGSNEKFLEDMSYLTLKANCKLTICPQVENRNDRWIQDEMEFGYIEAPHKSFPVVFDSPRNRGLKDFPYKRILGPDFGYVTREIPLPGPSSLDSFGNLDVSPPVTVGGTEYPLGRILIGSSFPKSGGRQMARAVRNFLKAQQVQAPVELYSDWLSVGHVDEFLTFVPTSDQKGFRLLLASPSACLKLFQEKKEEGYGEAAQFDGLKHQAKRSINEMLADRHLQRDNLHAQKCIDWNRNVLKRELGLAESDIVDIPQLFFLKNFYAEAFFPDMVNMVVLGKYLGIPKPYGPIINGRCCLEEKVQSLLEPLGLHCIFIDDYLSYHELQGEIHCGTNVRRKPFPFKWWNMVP
Protein-arginine deiminase type-2 (Homo sapiens), sequence (Q9Y2J8 whole entry, looked up): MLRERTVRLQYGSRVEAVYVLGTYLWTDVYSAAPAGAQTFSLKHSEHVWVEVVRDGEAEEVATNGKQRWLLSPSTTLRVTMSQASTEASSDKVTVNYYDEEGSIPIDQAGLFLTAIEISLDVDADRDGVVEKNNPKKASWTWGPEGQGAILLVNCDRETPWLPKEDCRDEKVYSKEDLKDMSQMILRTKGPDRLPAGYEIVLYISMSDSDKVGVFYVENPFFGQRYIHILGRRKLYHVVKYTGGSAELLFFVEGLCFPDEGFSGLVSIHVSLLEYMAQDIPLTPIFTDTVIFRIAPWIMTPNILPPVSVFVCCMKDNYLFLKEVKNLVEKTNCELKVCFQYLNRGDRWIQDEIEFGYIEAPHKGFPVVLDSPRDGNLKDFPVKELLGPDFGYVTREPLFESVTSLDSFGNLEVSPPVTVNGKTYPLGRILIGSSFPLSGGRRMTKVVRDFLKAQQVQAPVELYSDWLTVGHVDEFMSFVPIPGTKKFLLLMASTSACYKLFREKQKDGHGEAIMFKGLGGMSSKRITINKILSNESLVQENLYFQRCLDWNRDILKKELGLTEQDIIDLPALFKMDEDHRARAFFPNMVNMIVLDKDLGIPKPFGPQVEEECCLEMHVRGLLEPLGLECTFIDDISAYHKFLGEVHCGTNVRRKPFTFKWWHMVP

On to `COC1=C(N)C(=O)c2nc(-c3nc(C(=O)O)c(C)c(-c4ccc(OC)c(OC)c4O)c3N)ccc2C1=O`, for which, in test [1], the IC50 is 430 nM. Further, the IC50 entry in test [2] and in test [3] was “inactive” in each case.
